Source: publication PMC7067850, “Identification of highly potent and selective inhibitor, TIPTP, of the p22phox-Rubicon axis as a therapeutic agent for rheumatoid arthritis” (Scientific Reports, 2020)

Test system: NADPH oxidase
Test: NADPH oxidase activity (lucigenin-ECL) in BMDMs
Format: cell-based, mouse
Conditions: LPS or LPS/ATP stimulated (Fig. 3c, Supplemental Fig. 5b, 5e)
Description: Intracellular superoxide production was measured by the lucigenin (bis-N-methylacridinium nitrate)-ECL method[18],[19]. Briefly, cells lysates were allowed to equilibrate for 30 min at 37 °C in a reaction containing 50 mM phosphate buffer (pH 7.0), 1 mM EGTA, 150 mM sucrose, and a protease inhibitor mixture prior to the addition of Krebs-HEPES buffer containing lucigenin (5 μM) as the electron acceptor and NADPH (100 μM) as the electron donor. The values are expressed as relative light units per 1 × 10^5 cells.
Figure 3 TIPTP robustly suppresses LPS/ATP-mediated Rubicon-p22phox interaction and ROS-mediated inflammation. (a) Structure of the TIPTP. (b) MTT assay for cell viability. BMDMs were incubated with TIPTP for the indicated times at the indicated TIPTP concentrations (upper). WCLs were used for IB with α22phox, αRubicon, or αActin (lower). (c–f) LPS (100 ng/ml)-primed BMDMs were treated with compounds for 1 h, and then activated with ATP (1 mM) for 30 min. (c) NADPH oxidase activity. (d) FACS analysis for superoxide and hydrogen peroxide (upper). Quantitative analysis of mean fluorescence intensities of ROS (lower). (e) BMDMs were incubated with increasing concentrations of compound 1 and TIPTP (com 2) (***). IP with αRubicon, followed by IB with αp22phox, αBeclin-1, αUVRAG, αRubicon. […] (f) Culture supernatants were harvested and analyzed for cytokines by ELISA. […]

C[C@@H](Oc1cccc(-n2cc3c(n2)CCCC3)c1)C(=O)Nc1nnc(C(F)(F)F)s1 [TIPTP, (R)-2-(3-(4,5,6,7-tetrahydro-2H-indazol-2-yl)phenoxy)-N-(5-(trifluoromethyl)-1,3,4-thiadiazol-2-yl)propanamide]
NOX activity: inhibited in a dose-dependent manner
